In US20260224549A1, “COMPOUNDS, COMPOSITIONS, AND METHODS FOR TREATING, AMELIORATING, AND/OR PREVENTING PAIN” (priority 2023, published 2026):

How the values were obtained:
[1] = Hygroscopicity - Dynamic Vapor Sorption (DVS); assay type: physicochemical
Method: Hygroscopicity—Dynamic Vapor Sorption (DVS)
DVS is a gravimetric technique that measures how quickly and how much of a solvent (water) is sorbed by a sample. The relative humidity or vapor concentration surrounding the sample is varied while the change in mass of the sample is measured. […] The mass values at each relative humidity step are used to generate an isotherm. Isotherms are divided in two components: sorption for increasing humidity steps and desorption for decreasing humidity steps. A plot of kinetic data is also used to show the change in mass and humidity as a function of time.
The samples were analyzed using a TA Q5000 automated dynamic vapor sorption analyzer. The samples were dried at 60° C. over 180 minutes and then cooled to 25° C. with a dry nitrogen purge. The samples were then subjected to 0 to 90% RH, back to 10% RH at 25° C. in 10% RH steps.

clinical [2] = conditions: for AUC(0-t) / Cmax / Tmax: human
Method: The reference treatment i fasted condition for all comparisons.
Eight subjects in Cohort A3 participated in a 2-period treatment design in which they were assessed for the single-dose of drug substance in a Fasted condition and in a Fed condition. Subjects were to receive the same treatment (i.e., either drug substance or placebo) in both Period 1 and Period 2, and thus subjects would receive either two single doses of drug substance or two single doses of placebo during their participation in the study. Fasting state assessments occurred in Period 1 and Fed State assessments in Period 2. It was planned that an approximate 7-day washout would be needed between the Fast and Fed dosing periods. Note that PD assessments were not performed for the food effect Cohort A3.
Note that PD assessments were not performed for the Food Effect cohort.
For Part A Cohort A3, assessment of the food-effect was performed for the following PK parameters: • AUC0-last • Cmax • AUC0-inf

clinical [3] = conditions: for CL/F (apparent clearance), Mean / Tlast (time of last measurable concentration), Median / Tlast, Max / Tlast, Min / Tmax, Min / Tmax, Max / AUC(0-t): single oral dose, N = 6; for CL/F (apparent clearance), Mean / Tlast (time of last measurable concentration), Median / Tlast, Max / Tlast, Min / Tmax, Min / Tmax, Max / Tmax / half-life / Vd/F / AUC(0-inf) / Cmax / AUC(0-t): plasma; for Tmax / half-life / Vd/F / AUC(0-inf) / Cmax / AUC(0-t): human; for AUC(0-t): Mean
Description: The study comprised a single ascending dose (SAD), sequential cohort study, incorporating a food effect (FE) evaluation. Up to 40 subjects were to be studied in 5 cohorts (Cohorts A1 to A5), each cohort consisting of 8 subjects.
Subjects in Cohort A3 participated in 2 treatment periods (once in Fed state, once in Fasted state) separated by a minimum of 6 days. All subjects were to return for a poststudy on Day 5 (+2 days) after their final dose for a final safety assessment.
All doses for Cohorts A1, A2, A4, and A5 were administered in the fasted state in the moming of Day 1.
The actual blood sampling dates and times relative to dosing time were listed by subject and nominal sampling time, with time deviation calculated, for all subjects with available plasma concentration data.
For PK concentration data, the number of non-missing values, number of below limit of quantification (BLQ) values, arithmetic mean, standard deviation, median, minimum, maximum, coefficient of variation (CV %), geometric mean and geometric coefficient of variation (geo CV %) values was presented.
For PK parameter data, the number of non-missing values, arithmetic mean, standard deviation, median, minimum, and maximum values were presented.

rat = system: rat
Description: The chosen dose can be higher, as long as within the pharmacological range.

[4] = 120 mg DS (Fed), single oral dose, plasma, N = 6
[5] = 120 mg DS, Fed versus Fasted, n = 6

CN(C)C[C@H]1CN(CCc2ccsc2)CC[C@]1(O)c1cccc(C(N)=O)c1 [Compound I, 3-(3S, 4R)-3-((dimethylamino)methyl)-4-hydroxy-1-(2-(thiophen-3-yl)ethyl)piperidin-4-yl-benzamide]
maximum moisture uptake [1]: approximately 10.5 wt %
hygroscopicity ([1]; in words, listed as Compound I free base): hygroscopic
opiate-associated effects (single dose 20-400 mg): no system opiate-associated effects noted
tolerability (single dose ranging from 20 mg up to 400 mg, healthy subjects): well-tolerated
GLSM ratio (90% CI) fed/fasted, AUC0-last (clinical [2]; 120 mg): 0.801 (0.688, 0.933)
GLSM ratio (90% CI) fed/fasted, Cmax (clinical [2]; 120 mg): 0.450 (0.238, 0.852)
reduction of AUC0-last by food (clinical [2]; 120 mg): approximately 20%
reduction of peak concentrations by food (clinical [2]; 120 mg): approximately 55%
Tlast (time of last measurable concentration), Median (clinical [2]; [4]): 48.0 h
Tlast, Max (clinical [2]; [4]): 48.0 h
Tlast, Min (clinical [2]; [4]): 36.0 h
Tmax, Max (clinical [2]; [4]): 6.02 h
Tmax, Min (clinical [2]; [4]): 1.00 h
AUC0-last, Fed versus Fasted Ratio of GLSMs (clinical [2]; [5]): 0.801
Cmax, Fed versus Fasted Ratio of GLSMs (clinical [2]; [5]): 0.450
mean concentrations measurable through (clinical [2]; 120 mg fed): 48 h
AUC(0-t) (clinical [2]; plasma, oral, 120 mg, AUC0-last (zero to 24 hours postdose), GLSM, 120 mg DS (Fasted), n = 6): 202 ng·h/mL
AUC(0-t) (clinical [2]; plasma, oral, 120 mg, AUC0-last (zero to 24 hours postdose), GLSM, 120 mg DS (Fed), n = 6): 162 ng·h/mL
Cmax (clinical [2]; plasma, oral, 120 mg, GLSM (geometric least squares mean), 120 mg DS (Fasted), n = 6): 81.9 ng/mL
Cmax (clinical [2]; plasma, oral, 120 mg, GLSM (geometric least squares mean), 120 mg DS (Fed), n = 6): 36.9 ng/mL
Tmax (clinical [2]; plasma, oral, 120 mg, individual Tmax range, with food): 1 to 6 h
Tmax (clinical [2]; plasma, oral, 120 mg, individual Tmax range, without food): 2 to 3 h
Tmax (clinical [2]; plasma, oral, 120 mg, median Tmax, with food): 2.6 h
Tmax (clinical [2]; plasma, oral, 120 mg, median Tmax, without food): 2.3 h
AUC(0-t) (clinical [2]; plasma, po, 120 mg, AUC0-last (zero to 24 hours postdose), Mean, 120 mg DS (Fed), single oral dose, N = 6): 166 ng·h/mL
AUC(0-t) (clinical [2]; plasma, po, 120 mg, AUC0-t (zero to the last quantifiable concentration), Mean, 120 mg DS (Fed), single oral dose, N = 6): 204 ng·h/mL
Cmax (clinical [2]; plasma, po, 120 mg, Mean, 120 mg DS (Fed), single oral dose, N = 6): 45.2 ng/mL
Tmax (clinical [2]; plasma, po, 120 mg, Tmax, Median, 120 mg DS (Fed), single oral dose, N = 6): 2.58 h
CL/F (apparent clearance), Mean (clinical [3]; 20 mg DS (Fasted)): 1130 L/h
Tlast (time of last measurable concentration), Median (clinical [3]; 20 mg DS (Fasted)): 4.00 h
Tlast, Max (clinical [3]; 20 mg DS (Fasted)): 4.03 h
Tlast, Min (clinical [3]; 20 mg DS (Fasted)): 3.50 h
Tmax, Min (clinical [3]; 20 mg DS (Fasted)): 0.500 h
CL/F (clinical [3]; 20 mg fasted): 1130 L/h
mean concentrations measurable through (clinical [3]; 20 mg fasted): 3.5 h
CL/F (apparent clearance), Mean (clinical [3]; 60 mg DS (Fasted)): 937 L/h
Tlast (time of last measurable concentration), Median (clinical [3]; 60 mg DS (Fasted)): 12.0 h
Tlast, Max (clinical [3]; 60 mg DS (Fasted)): 24.0 h
Tlast, Min (clinical [3]; 60 mg DS (Fasted)): 6.00 h
Tmax, Max (clinical [3]; 60 mg DS (Fasted)): 3.02 h
CL/F (clinical [3]; 60 mg fasted): 937 L/h
mean concentrations measurable through (clinical [3]; 60 mg fasted): 8 h
CL/F (apparent clearance), Mean (clinical [3]; 120 mg DS (Fasted)): 541 L/h
Tlast (time of last measurable concentration), Median (clinical [3]; 120 mg DS (Fasted)): 36.0 h
Tlast, Max (clinical [3]; 120 mg DS (Fasted)): 48.0 h
Tlast, Min (clinical [3]; 120 mg DS (Fasted)): 16.0 h
Tmax, Max (clinical [3]; 120 mg DS (Fasted)): 3.00 h
mean concentrations measurable through (clinical [3]; 120 mg fasted): 36 h
CL/F (apparent clearance), Mean (clinical [3]; 200 mg DS (Fasted)): 452 L/h
Tlast (time of last measurable concentration), Median (clinical [3]; 200 mg DS (Fasted)): 48.0 h
Tlast, Max (clinical [3]; 200 mg DS (Fasted)): 48.1 h
Tlast, Min (clinical [3]; 200 mg DS (Fasted)): 36.0 h
Tmax, Max (clinical [3]; 200 mg DS (Fasted)): 2.02 h
Tmax, Min (clinical [3]; 200 mg DS (Fasted)): 1.00 h
mean concentrations measurable through (clinical [3]; 200 mg fasted): 36 h
CL/F (apparent clearance), Mean (clinical [3]; 400 mg DS (Fasted)): 500 L/h
Tlast (time of last measurable concentration), Median (clinical [3]; 400 mg DS (Fasted)): 48.0 h
Tlast, Max (clinical [3]; 400 mg DS (Fasted)): 48.0 h
Tlast, Min (clinical [3]; 400 mg DS (Fasted)): 48.0 h
Tmax, Max (clinical [3]; 400 mg DS (Fasted)): 2.02 h
Tmax, Min (clinical [3]; 400 mg DS (Fasted)): 1.00 h
mean concentrations measurable through (clinical [3]; 400 mg fasted): 48 h
Tmax (clinical [3]; oral): 1.5 to 2.5 h
half-life (clinical [3]; oral): 29.4 to 31.4 h
Vd/F (clinical [3]; oral, 20 mg): 1380 L
half-life (clinical [3]; oral, 20 mg): 1.05 h
Vd/F (clinical [3]; oral, 60 mg): 6790 L
half-life (clinical [3]; oral, 60 mg): 7.89 h
Vd/F (clinical [3]; oral, 120 mg): 12300 L
Vd/F (clinical [3]; oral, 200 mg): 18100 L
Vd/F (clinical [3]; oral, 400 mg): 20400 L
AUC(0-inf) (clinical [3]; po, 20 mg): 18.4 ng·h/mL
Cmax (clinical [3]; po, 20 mg): 9.69 ng/mL
Tmax (clinical [3]; po, 20 mg): 2.5 h
Vd/F (clinical [3]; po, 20 mg): 1380 L
half-life (clinical [3]; po, 20 mg): 1.05 h
AUC(0-t) (clinical [3]; po, 20 mg, AUC0-last (zero to 24 hours postdose), 20 mg DS (Fasted)): 16.5 ng·h/mL
AUC(0-t) (clinical [3]; po, 20 mg, AUC0-t (zero to the last quantifiable concentration), 20 mg DS (Fasted)): 13.9 ng·h/mL
AUC(0-inf) (clinical [3]; po, 60 mg): 79.8 ng·h/mL
Cmax (clinical [3]; po, 60 mg): 51.7 ng/mL
Tmax (clinical [3]; po, 60 mg): 2.25 h
Vd/F (clinical [3]; po, 60 mg): 6790 L
half-life (clinical [3]; po, 60 mg): 7.89 h
AUC(0-t) (clinical [3]; po, 60 mg, AUC0-last (zero to 24 hours postdose), 60 mg DS (Fasted)): 71.6 ng·h/mL
AUC(0-t) (clinical [3]; po, 60 mg, AUC0-t (zero to the last quantifiable concentration), 60 mg DS (Fasted)): 67.1 ng·h/mL
AUC(0-inf) (clinical [3]; po, 120 mg): 245 ng·h/mL
Cmax (clinical [3]; po, 120 mg): 98.5 ng/mL
Tmax (clinical [3]; po, 120 mg): 2.28 h
Vd/F (clinical [3]; po, 120 mg): 12300 L
half-life (clinical [3]; po, 120 mg): 31.4 h
AUC(0-t) (clinical [3]; po, 120 mg, AUC0-last (zero to 24 hours postdose), 120 mg DS (Fasted)): 211 ng·h/mL
AUC(0-t) (clinical [3]; po, 120 mg, AUC0-t (zero to the last quantifiable concentration), 120 mg DS (Fasted)): 231 ng·h/mL
AUC(0-inf) (clinical [3]; po, 200 mg): 446 ng·h/mL
Cmax (clinical [3]; po, 200 mg): 220 ng/mL
Tmax (clinical [3]; po, 200 mg): 2 h
Vd/F (clinical [3]; po, 200 mg): 18100 L
half-life (clinical [3]; po, 200 mg): 29.4 h
AUC(0-t) (clinical [3]; po, 200 mg, AUC0-last (zero to 24 hours postdose), 200 mg DS (Fasted)): 346 ng·h/mL
AUC(0-t) (clinical [3]; po, 200 mg, AUC0-t (zero to the last quantifiable concentration), 200 mg DS (Fasted)): 381 ng·h/mL
AUC(0-inf) (clinical [3]; po, 400 mg): 832 ng·h/mL
Cmax (clinical [3]; po, 400 mg): 318 ng/mL
Tmax (clinical [3]; po, 400 mg): 1.5 h
Vd/F (clinical [3]; po, 400 mg): 20400 L
half-life (clinical [3]; po, 400 mg): 32.1 h
AUC(0-t) (clinical [3]; po, 400 mg, AUC0-last (zero to 24 hours postdose), 400 mg DS (Fasted)): 698 ng·h/mL
AUC(0-t) (clinical [3]; po, 400 mg, AUC0-t (zero to the last quantifiable concentration), 400 mg DS (Fasted)): 794 ng·h/mL
NOAEL HED for 50 kg subject (rat): 485 mg
